Reference: PubChem BioAssay (NCI)
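Compound exposure: 48 hours, 5 concentrations, 96-well plates. TGI: concentration producing complete growth inhibition.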

test system: SR leukemia; test: NCI anticancer screen, dose series, 48 h

Q: `O/N=C(\c1ccccc1)N1CCCCC1` was tested. Which TGI did it give?
A: > 100 µM

test system: OVCAR-5 ovarian; test: NCI anticancer screen, dose series, 48 h

Q: How did the TGI turn out when `COc1cc(/C=C(\C#N)C(=O)c2ccccc2)ccc1OCc1ccccc1` was run?
A: > 100 µM

Q: With `C=C1C(=O)C23CC1C[C@H](OC(C)=O)[C@H]2C1(C)C(OC(C)=O)C[C@H](O)C(C)(C)[C@H]1C(=O)[C@@H]3OC(C)=O` (some centres not stated) as the compound, how does the TGI read?
A: 22.5 µM

Q: With `O=C1NC(=O)C(Cc2ccccc2)(c2cccnc2)N1` (configuration not stated) as the compound, how does the TGI read?
A: > 100 µM

Q: How did the TGI turn out when `COC(=O)c1s/c(=N\C(=S)N(C)C)n(-c2ccccc2)c1C(=O)OC` was run?
A: > 100 µM

Q: Which TGI does the source give for `COc1ccc(/C=C2\CCC(CNc3cc(C)on3)C2=O)cc1` (configuration not stated) here?
A: > 100 µM

Q: Which TGI does the source give for `COC(=O)C(Cc1c[nH]c2ccccc12)N=C1Nc2ccncc2S(=O)(=O)N1c1ccccc1` (configuration not stated) here?
A: > 100 µM

Q: Which TGI does the source give for `O/N=C(\c1ccccc1)N1CCCCC1` here?
A: > 100 µM

test system: TK-10 renal; test: NCI anticancer screen, dose series, 48 h

Q: How did the TGI turn out when `COc1cc(/C=C(\C#N)C(=O)c2ccccc2)ccc1OCc1ccccc1` was run?
A: > 100 µM

Q: `C=C1C(=O)C23CC1C[C@H](OC(C)=O)[C@H]2C1(C)C(OC(C)=O)C[C@H](O)C(C)(C)[C@H]1C(=O)[C@@H]3OC(C)=O` (some centres not stated) was tested. Which TGI did it give?
A: 5.82 µM

Q: With `O=C1NC(=O)C(Cc2ccccc2)(c2cccnc2)N1` (configuration not stated) as the compound, how does the TGI read?
A: > 100 µM

Q: With `COC(=O)c1s/c(=N\C(=S)N(C)C)n(-c2ccccc2)c1C(=O)OC` as the compound, how does the TGI read?
A: > 100 µM

Q: How did the TGI turn out when `COc1ccc(/C=C2\CCC(CNc3cc(C)on3)C2=O)cc1` (configuration not stated) was run?
A: > 100 µM

Q: With `COC(=O)C(Cc1c[nH]c2ccccc12)N=C1Nc2ccncc2S(=O)(=O)N1c1ccccc1` (configuration not stated) as the compound, how does the TGI read?
A: > 100 µM

test system: SK-MEL-2 melanoma; test: NCI anticancer screen, dose series, 48 h

Q: How did the TGI turn out when `COc1cc(/C=C(\C#N)C(=O)c2ccccc2)ccc1OCc1ccccc1` was run?
A: > 100 µM

Q: How did the TGI turn out when `C=C1C(=O)C23CC1C[C@H](OC(C)=O)[C@H]2C1(C)C(OC(C)=O)C[C@H](O)C(C)(C)[C@H]1C(=O)[C@@H]3OC(C)=O` (some centres not stated) was run?
A: 25.9 µM

Q: How did the TGI turn out when `O=C1NC(=O)C(Cc2ccccc2)(c2cccnc2)N1` (configuration not stated) was run?
A: > 100 µM

Q: `COC(=O)c1s/c(=N\C(=S)N(C)C)n(-c2ccccc2)c1C(=O)OC` was tested. Which TGI did it give?
A: > 100 µM

Q: How did the TGI turn out when `COc1ccc(/C=C2\CCC(CNc3cc(C)on3)C2=O)cc1` (configuration not stated) was run?
A: > 100 µM

Q: For `COC(=O)C(Cc1c[nH]c2ccccc12)N=C1Nc2ccncc2S(=O)(=O)N1c1ccccc1` (configuration not stated), which TGI is on record?
A: 68.5 µM

Q: Which TGI does the source give for `O/N=C(\c1ccccc1)N1CCCCC1` here?
A: > 100 µM

test system: LOX IMVI melanoma; test: NCI anticancer screen, dose series, 48 h

Q: How did the TGI turn out when `COc1cc(/C=C(\C#N)C(=O)c2ccccc2)ccc1OCc1ccccc1` was run?
A: > 100 µM

Q: How did the TGI turn out when `C=C1C(=O)C23CC1C[C@H](OC(C)=O)[C@H]2C1(C)C(OC(C)=O)C[C@H](O)C(C)(C)[C@H]1C(=O)[C@@H]3OC(C)=O` (some centres not stated) was run?
A: 10.3 µM

Q: `O=C1NC(=O)C(Cc2ccccc2)(c2cccnc2)N1` (configuration not stated) was tested. Which TGI did it give?
A: > 100 µM

Q: How did the TGI turn out when `COC(=O)c1s/c(=N\C(=S)N(C)C)n(-c2ccccc2)c1C(=O)OC` was run?
A: > 100 µM

Q: For `COc1ccc(/C=C2\CCC(CNc3cc(C)on3)C2=O)cc1` (configuration not stated), which TGI is on record?
A: > 100 µM

Q: For `COC(=O)C(Cc1c[nH]c2ccccc12)N=C1Nc2ccncc2S(=O)(=O)N1c1ccccc1` (configuration not stated), which TGI is on record?
A: 69.3 µM

Q: Which TGI does the source give for `O/N=C(\c1ccccc1)N1CCCCC1` here?
A: > 100 µM

test system: HL-60(TB) leukemia; test: NCI anticancer screen, dose series, 48 h

Q: With `COc1cc(/C=C(\C#N)C(=O)c2ccccc2)ccc1OCc1ccccc1` as the compound, how does the TGI read?
A: > 100 µM

Q: Which TGI does the source give for `C=C1C(=O)C23CC1C[C@H](OC(C)=O)[C@H]2C1(C)C(OC(C)=O)C[C@H](O)C(C)(C)[C@H]1C(=O)[C@@H]3OC(C)=O` (some centres not stated) here?
A: 4.47 µM

Q: With `O=C1NC(=O)C(Cc2ccccc2)(c2cccnc2)N1` (configuration not stated) as the compound, how does the TGI read?
A: > 100 µM

Q: `COC(=O)c1s/c(=N\C(=S)N(C)C)n(-c2ccccc2)c1C(=O)OC` was tested. Which TGI did it give?
A: > 100 µM

Q: With `COc1ccc(/C=C2\CCC(CNc3cc(C)on3)C2=O)cc1` (configuration not stated) as the compound, how does the TGI read?
A: > 21.5 µM

Q: Which TGI does the source give for `COC(=O)C(Cc1c[nH]c2ccccc12)N=C1Nc2ccncc2S(=O)(=O)N1c1ccccc1` (configuration not stated) here?
A: 0.727 µM

Q: How did the TGI turn out when `O/N=C(\c1ccccc1)N1CCCCC1` was run?
A: > 100 µM

test system: DU-145 prostate; test: NCI anticancer screen, dose series, 48 h

Q: With `C=C1C(=O)C23CC1C[C@H](OC(C)=O)[C@H]2C1(C)C(OC(C)=O)C[C@H](O)C(C)(C)[C@H]1C(=O)[C@@H]3OC(C)=O` (some centres not stated) as the compound, how does the TGI read?
A: 25.7 µM

Q: With `O=C1NC(=O)C(Cc2ccccc2)(c2cccnc2)N1` (configuration not stated) as the compound, how does the TGI read?
A: > 100 µM

Q: For `COc1ccc(/C=C2\CCC(CNc3cc(C)on3)C2=O)cc1` (configuration not stated), which TGI is on record?
A: > 100 µM

Q: Which TGI does the source give for `COC(=O)C(Cc1c[nH]c2ccccc12)N=C1Nc2ccncc2S(=O)(=O)N1c1ccccc1` (configuration not stated) here?
A: > 100 µM

test system: RXF 393 renal; test: NCI anticancer screen, dose series, 48 h

Q: With `C=C1C(=O)C23CC1C[C@H](OC(C)=O)[C@H]2C1(C)C(OC(C)=O)C[C@H](O)C(C)(C)[C@H]1C(=O)[C@@H]3OC(C)=O` (some centres not stated) as the compound, how does the TGI read?
A: 9.75 µM

Q: Which TGI does the source give for `O=C1NC(=O)C(Cc2ccccc2)(c2cccnc2)N1` (configuration not stated) here?
A: > 100 µM

Q: For `COC(=O)c1s/c(=N\C(=S)N(C)C)n(-c2ccccc2)c1C(=O)OC`, which TGI is on record?
A: > 100 µM

Q: How did the TGI turn out when `COc1ccc(/C=C2\CCC(CNc3cc(C)on3)C2=O)cc1` (configuration not stated) was run?
A: > 21.5 µM

Q: How did the TGI turn out when `COC(=O)C(Cc1c[nH]c2ccccc12)N=C1Nc2ccncc2S(=O)(=O)N1c1ccccc1` (configuration not stated) was run?
A: 56.8 µM

test system: SF-295 CNS; test: NCI anticancer screen, dose series, 48 h

Q: With `COc1cc(/C=C(\C#N)C(=O)c2ccccc2)ccc1OCc1ccccc1` as the compound, how does the TGI read?
A: > 100 µM

Q: Which TGI does the source give for `C=C1C(=O)C23CC1C[C@H](OC(C)=O)[C@H]2C1(C)C(OC(C)=O)C[C@H](O)C(C)(C)[C@H]1C(=O)[C@@H]3OC(C)=O` (some centres not stated) here?
A: 31.9 µM

Q: `O=C1NC(=O)C(Cc2ccccc2)(c2cccnc2)N1` (configuration not stated) was tested. Which TGI did it give?
A: > 100 µM
